From patent US10743540B2, “3-amino-1,2,4-triazine derivatives and their use for controlling undesired plant growth” (BAYER CROPSCIENCE AKTIENGESELLSCHAFT, priority 2016, dated 2020)

Key:
Type in all cases: in vivo
[1] = test system: ALOMY: Alopecurus myosuroides; assay: Pre-emergence herbicidal effect; settings: application rate 320 g/ha, scored visually after 3 weeks, 100% = plants have died, 0% = like control plants
From the text: (§1) 1. Pre-Emergence Herbicidal Effect and Crop Plant Compatibility Seeds of monocotyledonous and dicotyledonous weed plants and crop plants are laid out in sandy loam soil in wood-fiber pots and covered with soil. The compounds of the invention, formulated in the form of wettable powders (WP) or as emulsion concentrates (EC), are then applied to the surface of the covering soil as aqueous suspension or emulsion at a water application rate equating to 600 to 800 L/ha with addition of 0.2% wetting agent. After the treatment, the pots are placed in a greenhouse and kept under good growth conditions for the trial plants. The damage to the test plants is scored visually after a test period of 3 weeks by comparison with untreated controls (herbicidal activity in percent (%): 100% activity=the plants have died, 0% activity=like control plants). [table]

[2] = test system: ECHCG: Echinochloa crus-galli; assay: Pre-emergence herbicidal effect; settings: application rate 320 g/ha, scored visually after 3 weeks, 100% = plants have died, 0% = like control plants
From the text: as §1

[3] = test system: LOLMU: Lolium multiflorum; assay: Pre-emergence herbicidal effect; settings: application rate 320 g/ha, scored visually after 3 weeks, 100% = plants have died, 0% = like control plants
From the text: as §1

[4] = test system: MATIN: Matricaria inodora; assay: Pre-emergence herbicidal effect; settings: application rate 320 g/ha, scored visually after 3 weeks, 100% = plants have died, 0% = like control plants
From the text: as §1

[5] = test system: POLCO: Polygonum convolvulus; assay: Pre-emergence herbicidal effect; settings: application rate 320 g/ha, scored visually after 3 weeks, 100% = plants have died, 0% = like control plants
From the text: as §1

SETVI: Setaria viridis = assay: Pre-emergence herbicidal effect; settings: application rate 320 g/ha, scored visually after 3 weeks, 100% = plants have died, 0% = like control plants
From the text: as §1

STEME: Stellaria media [6] = assay: Pre-emergence herbicidal effect; settings: application rate 320 g/ha, scored visually after 3 weeks, 100% = plants have died, 0% = like control plants
From the text: as §1

VERPE: Veronica persica [7] = assay: Pre-emergence herbicidal effect; settings: application rate 320 g/ha, scored visually after 3 weeks, 100% = plants have died, 0% = like control plants
From the text: as §1

[8] = test system: ALOMY: Alopecurus myosuroides; assay: Post-emergence herbicidal effect; settings: application rate 320 g/ha, treated at one-leaf stage, assessed visually after about 3 weeks, 100% = plants have died
Description: (§2) [table] 2. Post-Emergence Herbicidal Effect and Crop Plant Compatibility Seeds of monocotyledonous and dicotyledonous weed and crop plants are laid out in sandy loam soil in wood-fiber pots, covered with soil and cultivated in a greenhouse under good growth conditions. 2 to 3 weeks after sowing, the test plants are treated at the one-leaf stage. The compounds of the invention, formulated in the form of wettable powders (WP) or as emulsion concentrates (EC), are then sprayed onto the green parts of the plants as aqueous suspension or emulsion at a water application rate equating to 600 to 800 L/ha with addition of 0.2% wetting agent. After the test plants have been left to stand in the greenhouse under optimal growth conditions for about 3 weeks, the action of the preparations is assessed visually in comparison to untreated controls (herbicidal action in percent (%): 100% activity=the plants have died, 0% activity=like control plants).

[9] = test system: AMARE: Amaranthus retroflexus; assay: Post-emergence herbicidal effect; settings: application rate 320 g/ha, treated at one-leaf stage, assessed visually after about 3 weeks, 100% = plants have died
Description: as §2

[10] = test system: ECHCG: Echinochloa crus-galli; assay: Post-emergence herbicidal effect; settings: application rate 320 g/ha, treated at one-leaf stage, assessed visually after about 3 weeks, 100% = plants have died
Description: as §2

STEME: Stellaria media [11] = assay: Post-emergence herbicidal effect; settings: application rate 320 g/ha, treated at one-leaf stage, assessed visually after about 3 weeks, 100% = plants have died
Description: as §2

VERPE: Veronica persica [12] = assay: Post-emergence herbicidal effect; settings: application rate 320 g/ha, treated at one-leaf stage, assessed visually after about 3 weeks, 100% = plants have died
Description: as §2

VIOTR: Viola tricolor = assay: Post-emergence herbicidal effect; settings: application rate 320 g/ha, treated at one-leaf stage, assessed visually after about 3 weeks, 100% = plants have died
Description: as §2

[13] = test system: ABUTH: Abutilon theophrasti; assay: Pre-emergence herbicidal effect; settings: application rate 320 g/ha, scored visually after 3 weeks, 100% = plants have died, 0% = like control plants
From the text: as §1

Row | Structure (SMILES) | Herbicidal activity with respect to [%] ALOMY [1] [%] | Herbicidal activity with respect to [%] ECHCG [2] [%] | Herbicidal activity with respect to [%] LOLMU [3] [%] | Herbicidal activity with respect to [%] MATIN [4] [%] | Herbicidal activity with respect to [%] POLCO [5] [%] | Herbicidal activity with respect to [%] SETVI (SETVI: Setaria viridis) [%] | Herbicidal activity with respect to [%] STEME (STEME: Stellaria media [6]) [%] | Herbicidal activity with respect to [%] VERPE (VERPE: Veronica persica [7]) [%] | Herbicidal activity with respect to [%] ALOMY [8] [%] | Herbicidal activity with respect to [%] AMARE [9] [%] | Herbicidal activity with respect to [%] ECHCG [10] [%] | Herbicidal activity with respect to [%] STEME (STEME: Stellaria media [11]) [%] | Herbicidal activity with respect to [%] VERPE (VERPE: Veronica persica [12]) [%] | Herbicidal activity with respect to [%] VIOTR (VIOTR: Viola tricolor) [%] | Herbicidal activity with respect to [%] ABUTH [13] [%]
1 | Nc1nc(NC2CCOc3ccc(F)cc32)nnc1C(F)(F)F (racemic) [Example 1.49] | 100 | 100 | 100 | 100 | 100 | 100 | 100 | 100 | 80 | 80 | 80 | 90 | 100 | 90 | 
2 | Cc1ccc2c(c1)[C@H](Nc1nnc(Cl)c(N)n1)[C@@H](C)C2 [Example 1.3, 6-Chloro-N^3-[(1R,2S)-2,6-dimethyl-2,3-dihydro-1H-inden-1-yl]-1,2,4-triazine-3,5-diamine] | 100 | 100 | 100 | 100 | 100 | 100 | 100 | 100 | 90 | 100 | 80 | 100 | 100 | 100 | 100
3 | CCOC(=O)c1nnc(N[C@H]2c3cc(C)ccc3C[C@@H]2C)nc1N [Example 1.21] | 90 | 100 |  | 100 | 100 | 100 |  | 80 | 80 | 90 | 80 | 100 | 100 | 80 | 
4 | Nc1nc(N[C@@H]2CCCc3ccccc32)nnc1C(F)(F)F [Example 1.22] | 100 | 100 |  | 100 | 100 | 100 | 100 | 100 | 100 | 100 | 100 | 100 | 100 | 100 | 90
5 | CC(=O)c1nnc(N[C@H]2c3cc(C)ccc3C[C@@H]2C)nc1N [Example 1.26] | 100 | 100 |  | 100 | 100 | 100 | 100 | 100 |  | 90 | 100 | 100 | 100 | 100 | 100
6 | Cc1ccc2c(c1)[C@H](Nc1nnc(S(C)(=O)=O)c(N)n1)[C@@H](C)C2 [Example 1.45] | 100 | 100 | 100 | 100 | 100 | 100 | 100 | 100 |  | 80 | 100 | 90 | 90 | 90 | 90
7 | Nc1nc(NC2CCOc3ccccc32)nnc1C(F)(F)F (stereo not shown) [Example 1.47, N^3-(3,4-Dihydro-2H-chromen-4-yl)-6-(trifluoromethyl)-1,2,4-triazine-3,5-diamine] | 80 | 100 |  | 100 | 100 | 100 | 100 | 100 | 100 | 100 | 100 | 100 | 100 | 100 | 
8 | Cc1ccc2c(c1)[C@H](Nc1nnc(S(C)(=O)=O)c(N)n1)CCC2 [Example 1.68] | 100 | 100 | 100 | 100 | 100 | 100 | 100 | 100 | 100 |  | 80 | 100 | 80 | 90 | 100
9 | Cc1ccc2c(c1)[C@H](Nc1nnc([S+](C)[O-])c(N)n1)CCC2 (stereo partly shown) [Example 1.69] | 90 | 100 | 90 | 100 | 100 | 100 | 100 | 100 | 90 | 90 | 80 | 100 | 80 | 80 | 
10 | CNC(=O)c1nnc(N[C@@H]2CCc3ccc(C)cc32)nc1N [Example 1.76] | 100 | 100 |  | 100 | 100 | 100 |  |  | 80 | 80 |  | 100 |  |  | 100
11 | Cc1ccc2c(c1)[C@H](Nc1nnc(C(N)=O)c(N)n1)CC2 [Example 1.78] | 100 | 100 |  | 100 | 90 | 100 |  |  | 100 | 80 |  | 100 |  | 80 | 100
